# Experimental data as given in patent US9809583B2 (priority 2014, dated 2017).
# Read-outs that look alike come from different tables or passages of the source.
# Columns and labels:
# castrated male rats = assay: Efficacy test in castrated male rat (Hershberger assay); format: in vivo, SD (Sprague-Dawley) rat; conditions: castrated male SD rats, oral once a day for 14 days
# Protocol: SD (Sprague-Dawley) male rats (7-week-old) were castrated under ketamine/xylazine anesthesia, and 5 rats were randomly assigned to one group. From the next day, the agonists were dissolved in a vehicle solution and orally administered at a dose of 5 ml per kg once a day for 14 days. As the vehicle, DMSO, Co-solvent, and DW were prepared at a ratio of 4:80:16 (v/v/v), and Co-solvent was prepared by mixing PEG400, Ethanol, and Tween 80 at a ratio of 85:10:5 (v/v/v). 24 hours after last administration of the drug, their body weight was measured and killed. Thereafter, levator ani muscle, ventral prostate, and seminal vesicles were removed and weighed (Hershberger assay). The following Table 6 represents the result of the efficacy test in castrated male rats.
# androgen receptor (hAR) = androgen receptor (hAR) (Homo sapiens (Human), UniProt P10275); assay: Test of transcriptional activity (hAR / ARE-Luc dual-luciferase assay in CHO cells); format: cell-based; conditions: CHO cells with hAR and ARE-Luc, 24 hours, 10 nM DHT = 100%
# Sequence of androgen receptor (hAR) (P10275 whole entry): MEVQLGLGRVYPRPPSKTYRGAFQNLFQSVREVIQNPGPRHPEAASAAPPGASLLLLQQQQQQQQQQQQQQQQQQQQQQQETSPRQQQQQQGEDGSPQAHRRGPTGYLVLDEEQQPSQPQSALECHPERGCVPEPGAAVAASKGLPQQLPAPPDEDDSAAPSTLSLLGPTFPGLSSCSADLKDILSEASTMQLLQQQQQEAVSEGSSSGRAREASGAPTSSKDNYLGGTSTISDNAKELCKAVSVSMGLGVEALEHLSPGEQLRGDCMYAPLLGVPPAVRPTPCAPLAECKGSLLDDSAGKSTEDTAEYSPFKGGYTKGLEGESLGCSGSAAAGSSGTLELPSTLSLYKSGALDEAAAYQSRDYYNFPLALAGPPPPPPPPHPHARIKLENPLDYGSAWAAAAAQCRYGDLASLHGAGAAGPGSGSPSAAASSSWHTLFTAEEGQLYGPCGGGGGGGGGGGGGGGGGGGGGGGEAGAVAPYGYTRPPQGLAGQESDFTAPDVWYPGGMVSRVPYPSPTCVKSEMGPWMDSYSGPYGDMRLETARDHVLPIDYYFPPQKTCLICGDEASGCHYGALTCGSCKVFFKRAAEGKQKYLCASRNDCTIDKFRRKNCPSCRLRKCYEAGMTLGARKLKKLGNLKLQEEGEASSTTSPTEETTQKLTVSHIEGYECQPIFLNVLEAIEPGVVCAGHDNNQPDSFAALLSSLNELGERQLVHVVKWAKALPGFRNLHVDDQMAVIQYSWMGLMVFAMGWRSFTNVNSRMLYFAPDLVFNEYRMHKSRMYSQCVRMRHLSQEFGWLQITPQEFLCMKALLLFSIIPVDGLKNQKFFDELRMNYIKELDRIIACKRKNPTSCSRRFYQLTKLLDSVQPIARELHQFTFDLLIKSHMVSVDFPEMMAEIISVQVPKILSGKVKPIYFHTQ
# Summary of the method: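 Compound at 0.1˜10,000 nM applied for 24 h to CHO cells carrying transfected human AR and an ARE-driven luciferase reporter. Cells were grown 24 h before transfection; readout was dual-luciferase luminescence.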
# [1] = read-out: EC50 [nM] (mean ± SE)
compound,measurement,setting,value
"N#Cc1ccc(OC[C@@H]2CN(c3ccc(C#N)c(C(F)(F)F)c3)[C@@H](C(F)(F)F)O2)cn1 [Example 44, 5-(((2R,5S)-3-(4-cyano-3-(trifluoromethyl)phenyl)-2-(trifluoromethyl)oxazolidin-5-yl)methoxy)picolinonitrile]",levator ani muscle weight % relative to intact control group,castrated male rats; 0.1 mg/kg,43.3 ± 8.1%
same,seminal vesicles weight % relative to intact control group,castrated male rats; 0.1 mg/kg,6.7 ± 1.5%
same,ventral prostate weight % relative to intact control group,castrated male rats; 0.1 mg/kg,7.0 ± 3.2%
same,levator ani muscle weight % relative to intact control group,castrated male rats; 0.3 mg/kg,66.6 ± 8.7%
same,seminal vesicles weight % relative to intact control group,castrated male rats; 0.3 mg/kg,16.9 ± 6.7%
same,ventral prostate weight % relative to intact control group,castrated male rats; 0.3 mg/kg,13.6 ± 5.0%
same,levator ani muscle weight % relative to intact control group,castrated male rats; 1 mg/kg,82.4 ± 10.2%
same,seminal vesicles weight % relative to intact control group,castrated male rats; 1 mg/kg,37.9 ± 4.3%
same,ventral prostate weight % relative to intact control group,castrated male rats; 1 mg/kg,26.1 ± 5.2%
same,levator ani muscle weight % relative to intact control group,castrated male rats; 3 mg/kg,92.1 ± 6.5%
same,seminal vesicles weight % relative to intact control group,castrated male rats; 3 mg/kg,54.5 ± 11.9%
same,ventral prostate weight % relative to intact control group,castrated male rats; 3 mg/kg,38.7 ± 8.3%
same,levator ani muscle weight % relative to intact control group,castrated male rats; 10 mg/kg,87.0 ± 7.5%
same,seminal vesicles weight % relative to intact control group,castrated male rats; 10 mg/kg,46.1 ± 10.8%
same,ventral prostate weight % relative to intact control group,castrated male rats; 10 mg/kg,28.2 ± 5.5%
same,levator ani muscle weight % relative to intact control group,castrated male rats; 30 mg/kg,74.2 ± 2.8%
same,seminal vesicles weight % relative to intact control group,castrated male rats; 30 mg/kg,49.6 ± 6.0%
same,ventral prostate weight % relative to intact control group,castrated male rats; 30 mg/kg,34.7 ± 4.1%
same,levator ani muscle weight % relative to intact control group,castrated male rats; 100 mg/kg,90.5 ± 6.5%
same,seminal vesicles weight % relative to intact control group,castrated male rats; 100 mg/kg,72.4 ± 14.6%
same,ventral prostate weight % relative to intact control group,castrated male rats; 100 mg/kg,39.9 ± 4.7%
same,EC50,androgen receptor (hAR); EC50 [nM] (mean ± SE),2.6 ± 0.4 nM
"COC(=O)N1CCN(C(=O)[C@@H]2CN(c3ccc(C#N)c(C(F)(F)F)c3)[C@@H](C(F)(F)F)O2)CC1 [Example 173, methyl 4-((2R,5S)-3-(4-cyano-3-(trifluoromethyl)phenyl)-2-(trifluoromethyl)oxazolidine-5-carbonyl)piperazine-1-carboxylate]",levator ani muscle weight % relative to intact control group,castrated male rats; 0.03 mg/kg,9.8 ± 0.6%
same,seminal vesicles weight % relative to intact control group,castrated male rats; 0.03 mg/kg,1.3 ± 0.4%
same,ventral prostate weight % relative to intact control group,castrated male rats; 0.03 mg/kg,0.6 ± 0.1%
same,levator ani muscle weight % relative to intact control group,castrated male rats; 0.1 mg/kg,15.0 ± 1.2%
same,seminal vesicles weight % relative to intact control group,castrated male rats; 0.1 mg/kg,1.3 ± 0.3%
same,ventral prostate weight % relative to intact control group,castrated male rats; 0.1 mg/kg,3.2 ± 0.6%
same,levator ani muscle weight % relative to intact control group,castrated male rats; 0.3 mg/kg,37.5 ± 2.3%
same,seminal vesicles weight % relative to intact control group,castrated male rats; 0.3 mg/kg,2.9 ± 0.3%
same,ventral prostate weight % relative to intact control group,castrated male rats; 0.3 mg/kg,3.5 ± 0.5%
same,levator ani muscle weight % relative to intact control group,castrated male rats; 1 mg/kg,61.1 ± 9.9%
same,seminal vesicles weight % relative to intact control group,castrated male rats; 1 mg/kg,5.9 ± 2.1%
same,ventral prostate weight % relative to intact control group,castrated male rats; 1 mg/kg,9.1 ± 2.1%
same,levator ani muscle weight % relative to intact control group,castrated male rats; 3 mg/kg,69.9 ± 3.6%
same,seminal vesicles weight % relative to intact control group,castrated male rats; 3 mg/kg,20.3 ± 4.8%
same,ventral prostate weight % relative to intact control group,castrated male rats; 3 mg/kg,12.4 ± 3.5%
same,levator ani muscle weight % relative to intact control group,castrated male rats; 10 mg/kg,93.0 ± 11.0%
same,seminal vesicles weight % relative to intact control group,castrated male rats; 10 mg/kg,34.5 ± 4.0%
same,ventral prostate weight % relative to intact control group,castrated male rats; 10 mg/kg,24.4 ± 2.0%
same,levator ani muscle weight % relative to intact control group,castrated male rats; 30 mg/kg,91.4 ± 8.2%
same,seminal vesicles weight % relative to intact control group,castrated male rats; 30 mg/kg,45.5 ± 8.6%
same,ventral prostate weight % relative to intact control group,castrated male rats; 30 mg/kg,33.2 ± 3.3%
same,levator ani muscle weight % relative to intact control group,castrated male rats; 100 mg/kg,99.5 ± 13.0%
same,seminal vesicles weight % relative to intact control group,castrated male rats; 100 mg/kg,52.8 ± 10.6%
same,ventral prostate weight % relative to intact control group,castrated male rats; 100 mg/kg,48.6 ± 9.3%
same,EC50,androgen receptor (hAR); EC50 [nM] (mean ± SE),5.34 nM
"(2R,5S)-3-(3-chloro-4-cyanophenyl)-N-(2-chloropyridin-4-yl)-2-(trifluoromethyl)oxazolidine-5-carboxamide [Example 136]",levator ani muscle weight % relative to intact control group,castrated male rats; 0.03 mg/kg,3.7 ± 0.8%
same,seminal vesicles weight % relative to intact control group,castrated male rats; 0.03 mg/kg,−0.1 ± 0.0%
same,ventral prostate weight % relative to intact control group,castrated male rats; 0.03 mg/kg,1.7 ± 0.5%
same,levator ani muscle weight % relative to intact control group,castrated male rats; 0.1 mg/kg,4.5 ± 0.9%
same,seminal vesicles weight % relative to intact control group,castrated male rats; 0.1 mg/kg,−0.4 ± 0.1%
same,ventral prostate weight % relative to intact control group,castrated male rats; 0.1 mg/kg,−0.6 ± 0.3%
same,levator ani muscle weight % relative to intact control group,castrated male rats; 0.3 mg/kg,10.0 ± 0.8%
same,seminal vesicles weight % relative to intact control group,castrated male rats; 0.3 mg/kg,0.8 ± 0.1%
same,ventral prostate weight % relative to intact control group,castrated male rats; 0.3 mg/kg,1.2 ± 0.3%
same,levator ani muscle weight % relative to intact control group,castrated male rats; 1 mg/kg,29.1 ± 3.3%
same,seminal vesicles weight % relative to intact control group,castrated male rats; 1 mg/kg,0.9 ± 0.2%
same,ventral prostate weight % relative to intact control group,castrated male rats; 1 mg/kg,2.6 ± 0.4%
same,levator ani muscle weight % relative to intact control group,castrated male rats; 3 mg/kg,36.6 ± 3.4%
same,seminal vesicles weight % relative to intact control group,castrated male rats; 3 mg/kg,2.4 ± 0.7%
same,ventral prostate weight % relative to intact control group,castrated male rats; 3 mg/kg,4.1 ± 0.9%
same,levator ani muscle weight % relative to intact control group,castrated male rats; 10 mg/kg,61.8 ± 3.1%
same,seminal vesicles weight % relative to intact control group,castrated male rats; 10 mg/kg,11.0 ± 3.6%
same,ventral prostate weight % relative to intact control group,castrated male rats; 10 mg/kg,10.5 ± 3.7%
same,levator ani muscle weight % relative to intact control group,castrated male rats; 30 mg/kg,81.4 ± 10.9%
same,seminal vesicles weight % relative to intact control group,castrated male rats; 30 mg/kg,35.8 ± 14.4%
same,ventral prostate weight % relative to intact control group,castrated male rats; 30 mg/kg,25.4 ± 7.8%
same,levator ani muscle weight % relative to intact control group,castrated male rats; 100 mg/kg,98.5 ± 7.7%
same,seminal vesicles weight % relative to intact control group,castrated male rats; 100 mg/kg,57.8 ± 17.9%
same,ventral prostate weight % relative to intact control group,castrated male rats; 100 mg/kg,42.1 ± 7.5%
same,EC50,androgen receptor (hAR); [1],5.07 nM
"N#Cc1ccc(OC[C@@H]2CN(c3ccc(C#N)c(C(F)(F)F)c3)[C@@H](C(F)(F)F)O2)c([N+](=O)[O-])c1 [Example 99, 4-((2R,5S)-5-((4-cyano-2-nitrophenoxy)methyl)-2-(trifluoromethyl)oxazolidin-3-yl)-2-(trifluoromethyl)benzonitrile]",EC50,androgen receptor (hAR); EC50 [nM] (mean ± SE),97.3 nM
"N#CCC(=O)Nc1ccc(OC[C@@H]2CN(c3ccc(C#N)c(C(F)(F)F)c3)[C@@H](C(F)(F)F)O2)cc1 [Example 95, 2-cyano-N-(4-(((2R,5S)-3-(4-cyano-3-(trifluoromethyl)phenyl)-2-(trifluoromethyl)oxazolidin-5-yl)methoxy)phenyl)acetamide]",EC50,androgen receptor (hAR); EC50 [nM] (mean ± SE),2.81 nM
"CC(=O)Nc1ccc(NC(=O)[C@@H]2CN(c3ccc(C#N)c(C(F)(F)F)c3)[C@@H](C(F)(F)F)O2)cc1 [Example 109, (2R,5S)-N-(4-acetamidophenyl)-3-(4-cyano-3-(trifluoromethyl)phenyl)-2-(trifluoromethyl)oxazolidine-5-carboxamide]",EC50,androgen receptor (hAR); EC50 [nM] (mean ± SE),5.09 nM
N#Cc1ccc(N2C[C@@H](C(=O)N3CCC(C#N)CC3)O[C@@H]2C(F)(F)F)cc1C(F)(F)F [Example 167],EC50,androgen receptor (hAR); EC50 [nM] (mean ± SE),44 nM
"(2R,5S)-N-(4-acetamidophenyl)-3-(3-chloro-4-cyanophenyl)-2-(trifluoromethyl)oxazolidine-5-carboxamide [Example 118]",EC50,androgen receptor (hAR); [1],30.4 nM
"N#Cc1ccc(NC(=O)[C@@H]2CN(c3ccc(C#N)c(C(F)(F)F)c3)[C@@H](C(F)(F)F)O2)cn1 [Example 108, (2R,5S)-3-(4-cyano-3-(trifluoromethyl)phenyl)-N-(6-cyanopyridin-3-yl)-2-(trifluoromethyl)oxazolidine-5-carboxamide]",EC50,androgen receptor (hAR); EC50 [nM] (mean ± SE),17 nM
"N#Cc1ccc(N2C[C@@H](C(=O)Nc3ccc(O)cc3)O[C@@H]2C(F)(F)F)cc1C(F)(F)F [Example 148, (2R,5S)-3-(4-cyano-3-(trifluoromethyl)phenyl)-N-(4-hydroxyphenyl)-2-(trifluoromethyl)oxazolidine-5-carboxamide]",EC50,androgen receptor (hAR); EC50 [nM] (mean ± SE),13.5 nM
CC(=O)NC1CCN(C(=O)[C@@H]2CN(c3ccc(C#N)c(C(F)(F)F)c3)[C@@H](C(F)(F)F)O2)CC1 [Example 176],EC50,androgen receptor (hAR); EC50 [nM] (mean ± SE),198 nM
"Cc1c(N2C[C@@H](COc3ccc(C#N)cc3)O[C@H]2C(F)(F)F)ccc(C#N)c1Cl [Example 84, 2-chloro-4-((2S,5S)-5-((4-cyanophenoxy)methyl)-2-(trifluoromethyl)oxazolidin-3-yl)-3-methylbenzonitrile]",EC50,androgen receptor (hAR); EC50 [nM] (mean ± SE),1140 nM
"(2R,5S)-3-(4-cyano-3-(trifluoromethyl)phenyl)-N-(3,4-dicyanophenyl)-2-(trifluoromethyl)oxazolidine-5-carboxamide [Example 132]",EC50,androgen receptor (hAR); [1],3.44 nM
"CCOC(=O)Nc1ccc(OC[C@@H]2CN(c3ccc(C#N)c(C(F)(F)F)c3)[C@@H](C(F)(F)F)O2)cc1 [Example 41, ethyl(4-(((2R,5S)-3-(4-cyano-3-(trifluoromethyl)phenyl)-2-(trifluoromethyl)oxazolidin-5-yl)methoxy)phenyl)carbamate]",EC50,androgen receptor (hAR); EC50 [nM] (mean ± SE),16.2 nM
"N#Cc1ccc(N2C[C@@H](C(=O)Nc3ccc(N)cc3)O[C@@H]2C(F)(F)F)cc1C(F)(F)F [Example 156, (2R,5S)-N-(4-aminophenyl)-3-(4-cyano-3-(trifluoromethyl)phenyl)-2-(trifluoromethyl)oxazolidine-5-carboxamide]",EC50,androgen receptor (hAR); EC50 [nM] (mean ± SE),323 nM
"N#Cc1ccc(N2C[C@@H](COc3ccc(N4CCOC4=O)cc3)O[C@@H]2C(F)(F)F)cc1C(F)(F)F [Example 38, 4-((2R,5S)-5-((4-(2-oxooxazolidin-3-yl)phenoxy)methyl)-2-(trifluoromethyl)oxazolidin-3-yl)-2-(trifluoromethyl)benzonitrile]",EC50,androgen receptor (hAR); EC50 [nM] (mean ± SE),165 nM
"N#Cc1ccc(N2C[C@@H](COc3ccc(CO)cc3)O[C@@H]2C(F)(F)F)cc1C(F)(F)F [Example 67, 4-((2R,5S)-5-((4-(hydroxymethyl)phenoxy)methyl)-2-(trifluoromethyl)oxazolidin-3-yl)-2-(trifluoromethyl)benzonitrile]",EC50,androgen receptor (hAR); EC50 [nM] (mean ± SE),3.93 nM
"N#Cc1ccc(N2C[C@@H](COc3ccc(/C=N/O)cc3[N+](=O)[O-])O[C@@H]2C(F)(F)F)cc1C(F)(F)F [Example 98, 4-((2R,5S)-5-((4-((E)-(hydroxyimino)methyl)-2-nitrophenoxy)methyl)-2-(trifluoromethyl)oxazolidin-3-yl)-2-(trifluoromethyl)benzonitrile]",EC50,androgen receptor (hAR); EC50 [nM] (mean ± SE),2.91 nM
